Data reported in article PMC9977887, “Crocodile defensin (CpoBD13) antifungal activity via pH-dependent phospholipid targeting and membrane disruption” (Nature Communications, 2023).
Read-outs that look alike come from different tables or passages of the source.

How the values were obtained:
[1] = Calcein-encapsulated liposome lysis assay; format: biochemical
Method: (§1) Liposomes were prepared using natural chicken egg L-α-phophatidylcholine and L-α-phosphatidic acid dissolved in chloroform (Avanti Polar Lipids), and liposome pulldowns (at pH 7.4) and calcein-encapsulated liposome lysis assays were performed as previously described. For liposome pulldowns performed at pH 5.5, the same protocol was used with minor variations. The desiccated lipid films were resuspended in 20 mM MES pH 7.4 and were washed in the same buffer during the centrifugation process. After the final wash step, the liposome pellets were resuspended in 20 mM MES pH 5.5 and incubated with CpoBD13 or mutants thereof (also prepared in the same acidic buffer).

C. albicans ATCC 10231 = test: Fungal growth inhibition assay; format: cell-based, Candida albicans; details: 24 h; for IC50: unit not in table, µM, read-out: IC50
Method: For fungal growth assays, overnight cultures of C. albicans ATCC 10231 cells (yeast peptone dextrose broth, 30°C, shaking at 160 rpm) were pelleted (2000 g, 5 min), washed once in 0.5× potato dextrose broth (BD Biosciences, Franklin Lakes, NJ) and finally resuspended in the same media. Cells were seeded onto a 96-well plate (400 cells, 50 µL) and treated with an equal volume of varying concentrations of defensin in 0.5× potato dextrose broth. After incubating the samples (24 h, 30 °C), the plates were shaken to distribute the cells and growth was determined by performing a 9-well scan (600 nm) using a Spectramax M5e microplate reader (Molecular Devices, San Jose, CA). For assays testing defensin salt tolerance, C. albicans cells were instead resuspended in 1x potato dextrose broth and treated with an equal volume of CpoBD13 + NaCl solution at their intended concentrations. Propidium iodide (PI) uptake assays were performed by preparing the cells as per the standard growth inhibition assay however they were instead seeded onto a U-bottom 96-well plate (50,000 cells, 25 µL). […] For PI uptake experiments performed at a specific pH, the same method was followed with the exception that cells were resuspended in 1× potato dextrose broth while defensin titrations were diluted in 40 mM MES buffer at the intended pH. An example PI uptake gating strategy is presented in Supplementary Fig. 1d.

Liposome pulldown = format: binding; details: 1 µg defensin; for Fraction of total protein (%), bound fraction: pH 5.5 (20 mM MES); for Fraction of total protein (%), Bound: pH 7.4
Method: as §1

PC only liposomes = test: liposome pulldown; details: 1 µg peptide, PC only, read off a plot
[2] = biological target: PC:PA liposomes (95:5 molar ratio PC:PA); test: liposome pulldown; details: 1 µg peptide, 95:5 molar ratio PC:PA, read off a plot
[3] = biological target: the molecule itself; test: cross-linking; BS(PEG)5 cross-linker; CpoBD13 (1 mg/mL stock) with 0 or 23 µM phosphatidic acid (08:0 PA; 0 or 0.092 mM stock), 20 mM HEPES pH 7.1, 30 min; SDS-PAGE and colloidal Coomassie
[4] = biological target: the molecule itself; test: cross-linking; BS(PEG)5 cross-linker; CpoBD13 or mutant (1 mg/mL stock) with 115 µM phosphatidic acid (08:0 PA; 0.46 mM stock), 20 mM HEPES pH 7.1, 30 min; SDS-PAGE and colloidal Coomassie
[5] = PC:PA 95:5 liposomes, replicate 1
[6] = PC:PA 95:5 liposomes, replicate 2
[7] = PC:PA 95:5 liposomes, replicate 3

CpoBD13 (H35A): CpoBD13 point mutant H35A
Lysis (%) ([1]; PC liposomes, replicate 1): 59.2077% | Lysis (%) ([1]; PC liposomes, replicate 2): 47.882% | Lysis (%) ([1]; PC liposomes, replicate 3): 48.469% | Lysis (%) ([1]; PC:PA liposomes, replicate 1): 63.0445% | Lysis (%) ([1]; PC:PA liposomes, replicate 2): 68.1197% | Lysis (%) ([1]; PC:PA liposomes, replicate 3): 58.6174% | fungal growth inhibition activity compared to the wild type (C. albicans ATCC 10231; IC50 comparison, two-tailed unpaired t test): No significant differences | IC50 (C. albicans ATCC 10231; Replicate 1): 4.14 µM | IC50 (C. albicans ATCC 10231; Replicate 2): 4.17 µM | IC50 (C. albicans ATCC 10231; Replicate 3): 4.2 µM | Fraction of total protein (%), bound fraction (Liposome pulldown; PC only liposomes, replicate 1): 23.8871% | Fraction of total protein (%), bound fraction (Liposome pulldown; PC only liposomes, replicate 2): 10.4017% | Fraction of total protein (%), bound fraction (Liposome pulldown; PC only liposomes, replicate 3): 20.2373% | Fraction of total protein (%), Bound (Liposome pulldown; PC only liposomes, replicate 1): 14.047% | Fraction of total protein (%), Bound (Liposome pulldown; PC only liposomes, replicate 2): 12.1176% | Fraction of total protein (%), Bound (Liposome pulldown; PC only liposomes, replicate 3): 23.9918% | Fraction of total protein (%), bound fraction (Liposome pulldown; [5]): 106.585% | Fraction of total protein (%), bound fraction (Liposome pulldown; [6]): 65.0801% | Fraction of total protein (%), bound fraction (Liposome pulldown; [7]): 97.4485% | Fraction of total protein (%), Bound (Liposome pulldown; [5]): 42.5181% | Fraction of total protein (%), Bound (Liposome pulldown; [6]): 53.6354% | Fraction of total protein (%), Bound (Liposome pulldown; [7]): 32.306%

Crocodylus porosus β-defensin 13 (CpoBD13) (from UniProt A0A7G6KN55) H21A
response (% (fraction of total)) (PC only liposomes; pH 5.5, parent: est. 20): 15 | response (% (fraction of total)) (PC only liposomes; pH 7.4, parent: est. 15): 23 | response (% (fraction of total)) ([2]; pH 5.5, parent: est. 88): 69 | response (% (fraction of total)) ([2]; pH 7.4, parent: est. 43): 38

Crocodylus porosus β-defensin 13 (CpoBD13) (from UniProt A0A7G6KN55) H33A
response (% (fraction of total)) (PC only liposomes; pH 5.5, parent: est. 20): 20 | response (% (fraction of total)) (PC only liposomes; pH 7.4, parent: est. 15): 18 | response (% (fraction of total)) ([2]; pH 5.5, parent: est. 88): 78 | response (% (fraction of total)) ([2]; pH 7.4, parent: est. 43): 38

Crocodylus porosus β-defensin 13 (CpoBD13) (from UniProt A0A7G6KN55) H35A
response (% (fraction of total)) (PC only liposomes; pH 5.5, parent: est. 20): 18 | response (% (fraction of total)) (PC only liposomes; pH 7.4, parent: est. 15): 15 | response (% (fraction of total)) ([2]; pH 5.5, parent: est. 88): 90 | response (% (fraction of total)) ([2]; pH 7.4, parent: est. 43): 42

Crocodylus porosus β-defensin 13 (CpoBD13) (from UniProt A0A7G6KN55) R9A
response (% (fraction of total)) (PC only liposomes; pH 5.5, parent: est. 20): 34 | response (% (fraction of total)) (PC only liposomes; pH 7.4, parent: est. 15): 10 | response (% (fraction of total)) ([2]; pH 5.5, parent: est. 88): 80 | response (% (fraction of total)) ([2]; pH 7.4, parent: est. 43): 17

Crocodylus porosus β-defensin 13 (CpoBD13) (from UniProt A0A7G6KN55) R17A
response (% (fraction of total)) (PC only liposomes; pH 5.5, parent: est. 20): 22 | response (% (fraction of total)) (PC only liposomes; pH 7.4, parent: est. 15): 13 | response (% (fraction of total)) ([2]; pH 5.5, parent: est. 88): 87 | response (% (fraction of total)) ([2]; pH 7.4, parent: est. 43): 26

B1: Crocodylus porosus β-defensin 13 (CpoBD13) (peptide, UniProt A0A7G6KN55 22-61, looked up)
chain: NGSYYSTLQCRNNHGHCRRLCFHGEQWIGNCNGRHQHCCK
notes: Crocodylus porosus β-defensin 13, mature defensin domain (nucleotides 142-255 of XM_019537183.1, limits set with SignalP); 114 nucleotides would give 38 residues; Three disulphide bonds; also called wild type CpoBD13; saltwater crocodile defensin; source: Pichia pastoris (pPIC9 vector), purified by cation exchange chromatography
stoichiometry N [3]: 2 | stoichiometry N [4]: ≤ 5
